From patent publication US5215916A, “Super glucocorticoid receptors: receptors with increased affinity and specificity for glucocorticoid steriods” (priority 1991, dated 1993)
Where a name gives a salt, the structure may show the parent alone.

Experiments:
[1] = target: T1, C656G mutant glucocorticoid receptor (Rattus norvegicus, UniProt P06536, C656G/D98G); experiment: Competition binding assay with [3H]Dex, COS-7 cytosol, C656G receptor; design: Thus the full length receptor was removed from the VARO vector with BamHI and inserted into the SVL vector; expressed in transfected cells; host or cells: COS-7 (cytosol)
T1 sequence (P06536 1-795 D98G/C656G): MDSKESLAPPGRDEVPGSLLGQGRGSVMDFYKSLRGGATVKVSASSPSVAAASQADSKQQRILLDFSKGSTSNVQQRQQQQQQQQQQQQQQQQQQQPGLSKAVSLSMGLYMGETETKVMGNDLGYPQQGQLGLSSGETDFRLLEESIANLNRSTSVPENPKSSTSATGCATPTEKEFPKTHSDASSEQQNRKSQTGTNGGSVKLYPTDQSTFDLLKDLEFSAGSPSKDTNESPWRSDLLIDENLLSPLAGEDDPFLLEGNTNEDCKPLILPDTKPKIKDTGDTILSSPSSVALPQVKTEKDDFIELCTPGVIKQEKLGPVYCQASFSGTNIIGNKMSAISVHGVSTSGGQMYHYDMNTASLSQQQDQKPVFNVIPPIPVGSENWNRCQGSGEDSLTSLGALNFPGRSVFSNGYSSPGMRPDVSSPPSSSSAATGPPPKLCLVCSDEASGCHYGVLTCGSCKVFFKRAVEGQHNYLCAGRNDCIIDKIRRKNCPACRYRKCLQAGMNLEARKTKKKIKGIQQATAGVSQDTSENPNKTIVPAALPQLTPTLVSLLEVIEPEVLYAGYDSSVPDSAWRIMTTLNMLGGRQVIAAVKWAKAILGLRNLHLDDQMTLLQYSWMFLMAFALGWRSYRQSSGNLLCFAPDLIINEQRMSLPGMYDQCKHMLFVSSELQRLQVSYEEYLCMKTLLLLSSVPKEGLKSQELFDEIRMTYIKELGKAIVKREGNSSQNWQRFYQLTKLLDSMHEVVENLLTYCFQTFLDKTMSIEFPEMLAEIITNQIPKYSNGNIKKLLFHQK
Protocol: Monolayer cultures of COS-7 cells were grown in DMEM (Gibco) supplemented with 5% fetal bovine serum (FBS) (Biofluids) at 37° C. in a 5% CO2 incubator. Standard calcium phosphate transfection methods were used to introduce the wild type and mutant receptor expression vectors (pSVL) into COS-7 cells (100 mm plates [Costar] at a cell density of about 10^6 /plate were each treated with 10 μg of plasmid DNA). After ~16 hrs of incubation at 37° C. in a 5% CO2 incubator, the excess calcium phosphate and precipitate were removed by washing with phosphate buffered saline (PBS). The cells were incubated at 37° C. for another ~48 hr in DMEM/ 5% FBS and harvested by trypsinization followed by centrifugation (for 10 min at 1570 ×g) and washing 3 times with PBS. The washed cells were stored at -80° C. until used.
COS-7 cell cytosol containing the steroid-free receptors was prepared by cell lysis at -80° C. and centrifugation at 15,000 ×g and labeled as described for HTC cells (S. S. Simons and P. A. Miller, Biochem 23:6876-6882 (1984)). Briefly, 30% cytosol solutions containing ~21 mM Na2 MoO4 were prepared with three parts COS-7 cell cytosol, 2 parts pH 9.5 TAPS buffer, and 5 parts pH 8.8 TAPS buffer. The total EtOH in each experiment was kept constant and at a level of ≤1%. […] After incubation for 2.5 hr, the [^3 H]Dex-Mes-labeled solutions were quick-frozen at -78° C. for subsequent SDS-polyacrylamide gel electrophoresis analysis. The specifically bound [^3 H]Dex was determined by first adding a 10% dextran-coated charcoal solution (added volume =20% of reaction solution volume) to remove free steroid and then subtracting the nonspecific binding seen in the presence of excess nonradioactive Dex.
Duplicate aliquots (72 μl) of COS-7 cell cytosol (33.5% in pH 8.8 TAPS/27 mM Na2 MoO4 buffer) were treated with 4 μl each of [^3 H]Dex (in pH 8.8 TAPS buffer) and various concentrations of non-radioactive competing steroid (in 20% EtOH in pH 8.8 TAPS buffer) (final concentration of [^3 H]Dex ≈3 ×10^-8 M). The average specific binding was determined after 2.5 or 24 hr of incubation as described above, expressed as percentage of the non-competed control and plotted versus the log10 of the concentration of the competing steroid.
The specificity of steroid binding was determined by Rodbard correction (Rodbard, 1973) of the data from a competition binding assay (S. S. Simons et al., Biochem. Biophys. Res. Comm. 86:793-800 (1979); Miller and Simons, 1988). The initial data were collected from 2.5 hr binding assays because of concerns about the stability of the receptors over longer times.

[2] = target: T1, C656G mutant glucocorticoid receptor; conditions: CV-1 cells, FIG. 1; C656G vs wild type
Protocol: The biological activity of wild type (.quadrature.) or C656G mutant ( ) receptors was determined in CV-1 cells as described in the Example Section. The determined amounts of CAT activity from each plate were then plotted as a function of the concentration of dexamethasone added to each.
Subconfluent cultures of CV-1 cells were co-transfected, using the standard calcium phosphate procedure, with 0.2 μg VARO receptor expression vector (containing the mutant receptor driven by the SV40 enhancer and the α-globulin promoter) and 1 μg G46TCO reporter vector (CAT gene driven by the thymidine kinase promoter [to -109 bp] and a 46 bp synthetic GRE derived from the murine mammary tumor virus long terminal repeat) for each 60 mm dish. Cells were incubated overnight at 37° C. in a 5% CO2 incubator with the DNA precipitates, after which they were washed twice with PBS, and fresh medium (Dulbecco's modified Eagle's medium H-16 supplemented with 5% fetal calf serum) was added together with the indicated hormone.
After an additional 24 hr, at 37° C. in a 5% CO2 incubator, extracts were prepared by four freeze-thaw cycles (-75° C., 65° C.) and centrifuged for 5 min at 15,000 xg. Heat-treated extracts (5 min, 65° C.) were normalized for protein content and the amount of expressed CAT enzyme activity was determined by a non-chromatographic assay (M. J. Sleigh, Anal. Biochem. 156:251-256 (1986)).

[3] = test system: mouse glucocorticoid receptor; conditions: L. I. Smith et al., 1988; cited from earlier work
[4] = test system: glucocorticoid receptor; conditions: Simons et al., 1987; cited from earlier work
[5] = test system: any other steroid receptors; conditions: cited from earlier work
[6] = test system: glucocorticoid receptors; conditions: cited from earlier work

C[C@@H]1C[C@H]2[C@@H]3CCC4=CC(=O)C=C[C@]4(C)[C@@]3(F)[C@@H](O)C[C@]2(C)[C@@]1(O)C(=O)CO [Dex, dexamethasone]
greater preference of C656G than wild type receptor for glucocorticoids vs aldosterone and progesterone [1]: 10-19 fold
lower concentrations for Dex induction of CAT activity with C656G than with wild type receptor [2]: ~ 10 fold

C[C@@H]1C[C@H]2[C@@H]3CCC4=CC(=O)C=C[C@]4(C)[C@@]3(F)[C@@H](O)C[C@]2(C)[C@@]1(O)C(=O)COS(C)(=O)=O [Dex-Mes, dexamethasone mesylate]
labeling of the identical cysteine in mouse receptor by Dex-Mes [3]: also labeled
covalent labeling of receptor thiol by Dex-Mes [4]: covalently label just one thiol in the receptor, i.e., cysteine 656

O=[As][O-].[Na+] [arsenite]
effect on steroid binding activity of other steroid receptors [5]: not of any other steroid receptors
effect of preincubation of unbound receptors on steroid binding [6]: eliminates all steroid binding
effect on steroid binding activity of glucocorticoid receptors [6]: blocks the steroid binding activity of glucocorticoid receptors
